We go through 56 compounds from PMC12064818, “A general assay platform to study protein pharmacology using ligand-dependent structural dynamics” (Nature Communications, 2025).

A value given as a limit tells only on which side of the number the result lay.

This test deals with T1, FLuc-C-HiBiT (Photinus pyralis, UniProt P08659).
T1 construct: firefly luciferase with C-terminal HiBiT tag, E. coli expressed
The test is described as follows: biochemical. To be noted: enzyme activity, 10 uM ATP; read-out: IC50 or SDR50 (mM) / FLuc E.

T1 sequence (P08659 whole entry, looked up): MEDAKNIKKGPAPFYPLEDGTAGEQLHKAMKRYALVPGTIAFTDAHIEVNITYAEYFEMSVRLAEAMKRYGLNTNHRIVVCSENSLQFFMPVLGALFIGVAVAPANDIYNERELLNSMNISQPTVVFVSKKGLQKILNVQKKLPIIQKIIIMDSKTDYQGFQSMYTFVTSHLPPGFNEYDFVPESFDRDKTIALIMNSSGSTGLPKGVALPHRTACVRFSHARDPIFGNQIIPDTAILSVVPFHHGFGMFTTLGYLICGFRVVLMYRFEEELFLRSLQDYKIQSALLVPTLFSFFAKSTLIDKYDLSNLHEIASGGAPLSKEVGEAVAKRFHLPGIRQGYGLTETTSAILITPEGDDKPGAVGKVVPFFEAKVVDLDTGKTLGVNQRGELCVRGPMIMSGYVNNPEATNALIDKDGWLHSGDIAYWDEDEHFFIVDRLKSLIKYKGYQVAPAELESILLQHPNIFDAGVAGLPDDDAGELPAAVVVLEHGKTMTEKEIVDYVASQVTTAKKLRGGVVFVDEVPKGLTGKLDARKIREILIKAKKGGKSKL

For `O=C(O)c1cccc(-c2noc(-c3cc([N+](=O)[O-])cc([N+](=O)[O-])c3)n2)c1` [NCGC00250195-01], the IC50 worked out at 3.13 µM.
Regarding `CC(=O)NC1(C)CCN(Cc2cccc(-c3ccc4ccccc4c3)c2)C1` (centres unmarked) [NCGC00410355-01], the IC50 is 11.4 µM.
Consider `O=C(O)c1cccc(-c2noc(-c3ccc(C(F)(F)F)cc3)n2)c1` [NCGC00168770-01], for which the IC50 was 0.00351 µM.
In the case of `CCCNc1cc(N2CCC(CCC(=O)O)CC2)ncn1` [NCGC00432805-01] it was 7.85 µM; in that of `O=C1N(c2ccccc2)C[C@H]2CN(Cc3ccccc3)CCN12` [NCGC00393129-01], 20.2 µM.
As to `COc1ccc(-c2cc3nc4c(c(=O)n3[nH]2)CN(C(=O)NCc2ccco2)CC4)cc1` [NCGC00440289-01], the IC50 was determined as 11.1 µM.
Turning to `CCc1noc(-c2nc(-c3ccc4c(c3)OCO4)no2)n1` [NCGC00450064-01], the IC50 was 9.89 µM.
Regarding `CN1Cc2ccc(C(=O)NCCOc3ccccc3)cc2OCC1=O` [NCGC00418504-01], the IC50 was found to be 20.2 µM.
In the case of `COc1cccc(CN2CCNc3cc(Nc4ccccc4)ncc3C2)c1` [NCGC00411172-01] it was 18 µM; in that of `Nc1ccc(-c2nc3ccccc3s2)cc1` [NCGC00165328-03], 1.76 µM.
In the case of `Cc1ccc2oc(-c3ccc(C)c(NC(=O)/C=C/c4ccc(Cl)cc4)c3)nc2c1` [NCGC00103154-01], the IC50 amounted to 11.1 µM.
For `Cc1n[nH]c2c1C(c1ccc(Cl)cc1)C(C#N)=C(N)O2` (centres unmarked) [NCGC00027933-02], the IC50 was > 30 µM.
As for `CC(=O)c1cccc(-c2nc3ccccc3s2)c1` [NCGC00167620-01], the IC50 is 9.89 µM.
On to `Cc1ccc(NC(=O)CCc2c(C)nc3cc(-c4ccccc4)nn3c2C)cc1F` [NCGC00109926-01], for which the IC50 is 11.1 µM.
On to `CCOc1ccccc1C(=O)Nc1cccc(-c2nc3ccccc3s2)c1` [NCGC00119161-01], for which the IC50 came to 11.1 µM.
Regarding `COc1ccc(-c2nc3ccccc3s2)cc1NC(=O)COc1ccc(C)cc1` [NCGC00103030-01], the IC50 was > 30 µM.
Regarding `OCC1(CC2CC2)CCCN(c2nc(-c3ccccc3)no2)C1` (centres unmarked) [NCGC00440394-01], the IC50 was > 30 µM.
Turning to `COc1ccc(-c2cc(N3CCCC(NC(=O)c4ccc5[nH]ccc5c4)C3)[nH]n2)cc1` (centres unmarked) [NCGC00437714-01], the IC50 was 4.95 µM.
For `COc1cc(-c2nc3ccccc3s2)ccc1O` [NCGC00390758-02], the IC50 came to 11.1 µM.
In the case of `O=C(Nc1cccc(F)c1)Nc1ccc2n(c1=O)C[C@H]1C[C@@H]2CN(C(=O)c2ccc(F)cc2)C1` [NCGC00398007-01], the IC50 stood at 7 µM.
On to `COCCNc1oc(-c2ccc(OC)cc2)nc1C#N` [NCGC00101301-01], for which the IC50 turned out to be 12.4 µM.
Take `O=C(Nc1nc2ccccc2s1)c1ccc2c(c1)OCCN(CCC(F)(F)F)C2` [NCGC00418456-01]: the IC50 was determined as 20.2 µM.
With `Cc1ccc(-c2nnc(SCc3ccccc3C#N)o2)cc1` [NCGC00103157-01], the IC50 came to 2.21 µM.
In the case of `COc1ccc(CC(=O)Nc2ccc(-c3nc4ccccc4s3)cc2Cl)cc1OC` [NCGC00137804-01] it was > 30 µM; in that of `Cc1cccc(OCCn2nnc3sc4c(c3c2=O)CCCC4)c1` [NCGC00117282-01], 12.4 µM.
`COc1ccc(C(=O)COC(=O)CCCC(=O)Nc2ccc(C(C)=O)cc2)cc1` [NCGC00100762-01]: the IC50 came to 9.89 µM.
As to `CN1CCOc2nc(-c3cccc(OC(F)(F)F)c3)ncc2C1=O` [NCGC00413529-01], the IC50 turned out to be 18 µM.
In the case of `CC(=O)c1cccc(NC(=O)c2nc3ccccc3n(C)c2=O)c1` [NCGC00107713-01] it was 3.13 µM.
Turning to `Fc1ccc(Cc2cn3cc(-c4ccc(F)cc4)nc3s2)cc1` [NCGC00102134-01], the IC50 came out at 0.881 µM.
In the case of `COc1ccc(-c2ncc3c(n2)OCCN(c2ccccc2)C3=O)cc1F` [NCGC00413523-01], the IC50 came out at 3.21 µM.
In the case of `COc1ccc(-c2cc(N3CCCC(NC(=O)c4ccc5c(c4)OCO5)C3)[nH]n2)cc1` (centres unmarked) [NCGC00437602-01] it was 11.1 µM; in that of `O=C(NCCc1ccccc1)c1ccc2c(c1)nc1n2CCOC1` [NCGC00133386-01], 8.81 µM; in that of `NC(=O)c1cccc(-c2cc3c(cn2)CN(Cc2ccccc2)CCN3)c1` [NCGC00411232-01], 20.2 µM.
On to `CCC[C@H](C)Oc1nc(N)c2[nH]c(=O)n(CCCCCN3CCCCC3)c2n1` [NCGC00856659-01], for which the IC50 is > 30 µM.
With `O=C(Nc1ccc(-c2nc3ccccc3s2)cc1)c1c(F)c(F)c(F)c(F)c1F` [NCGC00598374-01], the IC50 is > 30 µM.
For `O=C1CCC2(C(=O)NCCc3ccccc3)CCCC=C2N1c1ccccc1` (centres unmarked) [NCGC00472135-01], the IC50 was determined as 15.7 µM.
`CCN(CC)[S+](=O)([O-])c1ccc2nc(NC(=O)c3cccnc3)sc2c1` [NCGC00134045-01]: the IC50 was 12.4 µM.
As to `Cc1nc[nH]c1CN1CCNc2cc(Nc3ccccc3)ncc2C1` [NCGC00411231-01], the IC50 came to 18 µM.
With `CN(CCO)c1ccc(-c2nc(CCCc3ccccc3)no2)cn1` [NCGC00438483-01], the IC50 is 12.4 µM.
As to `O=C(NCC1CCCN(C(=O)N2CCCC2)C1)c1ccc(-c2ccccc2)cc1` (centres unmarked) [NCGC00444515-01], the IC50 is 12.4 µM.
The same measure for `Cn1c([C@H]2CCN(C3CCCCC3)C2)nc2ccccc21` [NCGC00394901-01]: 25.4 µM.
For the compound `Cc1ccc(-n2nc(C)c([C@H]3C=C[C@@H](OC(=O)Nc4cccc(C(F)(F)F)c4)C3)c2C)cc1Cl` [NCGC00401611-01], the IC50 was > 30 µM.
Turning to `COc1ccc(NC(=O)Nc2cccc(-c3ccc(N4CCOCC4)nn3)c2)cc1F` [NCGC00427622-01], the IC50 turned out to be 0.881 µM.
`O=C(O)c1cccc(-c2noc(-c3ccccc3F)n2)c1` [PTC124]: the IC50 amounted to 0.00154 µM.
In the case of `C[S+](=O)([O-])CCn1ncc2cc(OCc3cccc(-c4cccnc4)c3)ccc21` [NCGC00418034-01] it was 16.1 µM; in that of `COc1ccc(OC)c(-c2nc3ccc(OC)cc3s2)c1` [NCGC00167604-01], 8.81 µM.
As to `O=C(COc1ccccc1Cl)Nc1ccc(-c2nc3ccccc3s2)cc1` [NCGC00098726-01], the IC50 is > 30 µM.
In the case of `C[C@@H]1C(=O)O[C@H]2[C@H]1CC[C@@]1(C)Cc3sc(NCc4ccccc4)nc3[C@@H](C)[C@H]21` [NCGC00391358-01], the IC50 came to 7.18 µM.
The same measure for `COc1ccc(-c2cc3c(cn2)CN(C(C)=O)CCN3)cc1` [NCGC00411126-01]: 12.8 µM; for `Cc1ccc(CN2CCc3nc(C(=O)Nc4ccccc4)oc3CC2)cc1` [NCGC00413255-01]: 16.1 µM; for `COc1cccc(CNC(=O)Nc2cccc(-c3ccc(N4CCOCC4)nn3)c2)c1` [NCGC00427600-01]: 2.79 µM.
For `COc1ccc(-c2nc3ccccc3s2)cc1NC(=O)c1cccc([N+](=O)[O-])c1C` [NCGC00102361-01], the IC50 amounted to 6.24 µM.
As for `O=C(Nc1ccc2oc(-c3ccccc3F)nc2c1)c1ccccc1Cl` [NCGC00098974-01], the IC50 was 5.56 µM.
The same measure for `Cc1ccc(C(=O)COC(=O)c2cc(-c3cccs3)nc3ccccc23)cc1` [NCGC00100788-01]: 12.4 µM; for `COc1cc(OC)cc(C(=O)Nc2cc(-c3nc4ccccc4s3)ccc2OC)c1` [NCGC00102359-01]: > 30 µM.
With `CC1(NC(=O)C2CC2)CN(Cc2nc(-c3ccccc3)cs2)C1` [NCGC00410376-01], the IC50 amounted to 20.2 µM.
